# From patent US20030225152A1, “3-(Arylamino)methylene-1, 3-dihydro-2h-indol-2-ones as kinase inhibitors” (priority 2001, published 2003)
# System: VEGF induced increases in intracellular calcium levels in HUVEC (human umbilical vein endothelial cells)
# Assay: VEGF Stimulated Ca++ Signal in vitro (FLIPR)
# Assay type: cell-based
# Details: Homo sapiens, 10 μM, VEGF 5 ng/mL
# Experimental: VEGF Stimulated Ca^++ Signal in vitro
# Automated FLIPR (Fluorometric Imaging Plate Reader) technology was used to screen for inhibitors of VEGF induced increases in intracellular calcium levels in fluorescent dye loaded endothelial cells. HUVEC (human umbilical vein endothelial cells) (Clonetics) were seeded in 96-well fibronectin coated black-walled plates overnight at 37° C./5%CO2. Cells were loaded with calcium indicator Fluo-4 for 45 minutes at 37° C. Cells were washed 4 times (Original Cell Wash, Labsystems) to remove extracellular dye. Test compounds were reconstituted in 100% DMSO and added to the cells to give a final DMSO concentration of 0.1%. For screening, cells were pre-incubated with test agents for 30 minutes, at a single concentration (10 μM) or at concentrations ranging from 0.01 to 10.0 μM followed by VEGF stimulation (5 ng/mL). Changes in fluorescence at 516 nm were measured simultaneously in all 96 wells using a cooled CCD camera. Data were generated by determining max-min fluorescence levels for unstimulated, stimulated, and drug treated samples. IC50 values for test compounds were calculated from % inhibition of VEGF stimulated responses in the absence of inhibitor.
row,Structure (SMILES),inhibition at 10 µM [%]
1,"O=C1Nc2ccccc2C1=CNc1cccc(C(F)(F)F)c1 [Example 22, 3-[(3-Trifluoromethyl-phenylamino)-methylene]-1,3-dihydro-indol-2-one]",22.5
2,"CCc1ccccc1NC=C1C(=O)Nc2cccc(C)c21 [Example 127, 3-[(2-Ethyl-phenylamino)-methylene]-4-methyl-1,3-dihydro-indol-2-one]",-11.8
3,"COc1cc(NC=C2C(=O)Nc3cccc(C)c32)cc(OC)c1 [Example 61, 3-[(3,5-Dimethoxy-phenylamino)-methylene]-4-methyl-1,3-dihydro-indol-2-one]",-4.5

# Target: T1, cytoplasmic domain of the human VEGF receptor (VEGFR-2) (Homo sapiens, UniProt P35968)
# T1 construct: The cytoplasmic domain of the human VEGF receptor (VEGFR-2) was expressed as a Histidine-tagged fusion protein; Histidine tag
# T1 sequence (P35968 786-1356): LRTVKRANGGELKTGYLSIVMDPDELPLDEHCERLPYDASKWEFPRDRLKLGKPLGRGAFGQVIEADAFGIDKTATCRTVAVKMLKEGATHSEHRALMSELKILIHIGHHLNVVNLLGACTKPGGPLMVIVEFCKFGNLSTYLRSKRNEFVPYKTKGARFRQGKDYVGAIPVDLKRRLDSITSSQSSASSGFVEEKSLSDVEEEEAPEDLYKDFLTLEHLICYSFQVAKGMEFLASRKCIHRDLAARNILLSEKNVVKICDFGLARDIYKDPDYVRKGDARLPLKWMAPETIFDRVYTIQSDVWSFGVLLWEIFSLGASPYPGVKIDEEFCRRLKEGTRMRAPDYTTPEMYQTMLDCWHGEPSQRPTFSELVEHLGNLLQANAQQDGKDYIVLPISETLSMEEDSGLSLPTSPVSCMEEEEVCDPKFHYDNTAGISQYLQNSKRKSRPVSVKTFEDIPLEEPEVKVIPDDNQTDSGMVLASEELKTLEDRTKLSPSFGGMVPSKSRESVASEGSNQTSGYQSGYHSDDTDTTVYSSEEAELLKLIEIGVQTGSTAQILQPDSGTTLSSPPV
# Assay: KDR Assay
# Assay type: biochemical
# Details: His-VEGFR-2; 3.6 μM ATP
# Experimental: The cytoplasmic domain of the human VEGF receptor (VEGFR-2) was expressed as a Histidine-tagged fusion protein following infection of insect cells using an engineered baculovirus. His-VEGFR-2 was purified to homogeneity, as determined by SDS-PAGE, using nickel resin chromatography. Kinase assays were performed in 96 well microtiter plates that were coated overnight with 30 μg of poly-Glu-Tyr (4:1) in 10 mM Phosphate Buffered Saline (PBS), pH 7.2-7.4. The plates were incubated with 1% BSA and then washed four times with PBS prior to starting the reaction. Reactions were carried out in 120 μL reaction volumes containing 3.6 μM ATP in kinase buffer (50 mM Hepes buffer pH 7.4, 20 mM MgCl2, 0.1 mM MnCl2 and 0.2 mM Na3VO4). Test compounds were reconstituted in 100% DMSO and added to the reaction to give a final DMSO concentration of 5%. Reactions were initiated by the addition 0.5 ng of purified protein. Following a ten minute incubation at 25° C., the reactions were washed four times with PBS containing 0.05% Tween-20. 100 μl of a monoclonal anti-phosphotyrosine antibody-peroxidase conjugate was diluted 1:10000 in PBS-Tween-20 and added to the wells for 30 minutes. Following four washes with PBS-Tween-20, 100 μl of O-phenylenediamine Dihydrochloride in Phosphate-citrate buffer, containing urea hydrogen peroxide, was added to the wells for 7 minutes as a colorimetric substrate for the peroxidase. The reaction was terminated by the addition of 100 μl of 2.5N H2SO4 to each well and read using a microplate ELISA reader set at 492 nm. IC50 values for compound inhibition were calculated directly from graphs of optical density (arbitrary units) versus compound concentration following subtraction of blank values.
row,Structure (SMILES),IC50 [nM]
1,"O=C1Nc2ccccc2C1=CNc1ccc(CCN2CCCCC2)cc1 [Example 284, 3-{[4-(2-Piperidin-1-yl-ethyl)-phenylamino]-methylene}-1,3-dihydro-indol-2-one]",250
2,"O=C1Nc2ccccc2C1=CNc1ccc(OCCN2CCCCC2)cc1 [Example 254, 3-{[4-(2-Piperidin-1-yl-ethoxy)-phenylamino]-methylene}-1,3-dihydro-indol-2-one]",500
3,"O=C1Nc2ccc(F)cc2C1=CNc1ccc(OCCN2CCCC2)cc1 [Example 274, 5-Fluoro-3-{[4-(2-pyrrolidin-1-yl-ethoxy)-phenylamino]-methylene}-1,3-dihydro-indol-2-one]",210
4,"Cc1cccc2c1C(=CNc1ccc(OCCN3CCCC3)cc1)C(=O)N2 [Example 270, 4-Methyl-3-{[4-(2-pyrrolidin-1-yl-ethoxy)-phenylamino]-methylene}-1,3-dihydro-indol-2-one]",110
5,"CN1CCCC(COc2ccc(NC=C3C(=O)Nc4cc(F)ccc43)cc2)C1 (stereo not drawn) [Example 279, 6-Fluoro-3-{[4-(1-methyl-piperidin-3-ylmethoxy)-phenylamino]-methylene}-1,3-dihydro-indol-2-one]",160
6,"O=C1Nc2cc(F)ccc2C1=CNc1ccc(CCN2CCOCC2)cc1 [Example 311, 6-Fluoro-3-{[4-(2-morpholin-4-yl-ethyl)-phenylamino]-methylene}-1,3-dihydro-indol-2-one]",100
7,"O=C1Nc2cc(F)ccc2C1=CNc1ccc(CN2CCCCC2)cc1 [Example 259, 6-Fluoro-3-[(4-piperidin-1-ylmethyl-phenylamino)-methylene]-1,3-dihydro-indol-2-one]",300
8,"Cc1cccc2c1C(=CNc1ccc(CCN3CCCCC3)cc1)C(=O)N2 [Example 286, 4-Methyl-3-{[4-(2-piperidin-1-yl-ethyl)-phenylamino]-methylene}-1,3-dihydro-indol-2-one]",40
9,"O=C1Nc2cc(F)ccc2C1=CNc1ccc(NCCCN2CCOCC2)cc1 [Example 298, 6-Fluoro-3-{[4-(3-morpholin-4-yl-propylamino)-phenylamino]-methylene}-1,3-dihydro-indol-2-one]",340
10,"Cc1cccc2c1C(=CNc1ccc(OCCCCN3CCCCC3)cc1)C(=O)N2 [Example 246, 4-Methyl-3-{[4-(4-piperidin-1-yl-butoxy)-phenylamino]-methylene}-1,3-dihydro-indol-2-one]",90
11,"O=C1Nc2cc(F)ccc2C1=CNc1ccc(CCN2CCCCC2)cc1 [Example 289, 6-Fluoro-3-{[4-(2-piperidin-1-yl-ethyl)-phenylamino]-methylene}-1,3-dihydro-indol-2-one]",260
12,"Cc1cccc2c1C(=CNc1ccc(OCCN3CCCCC3)cc1)C(=O)N2 [Example 252, 4-Methyl-3-{[4-(2-piperidin-1-yl-ethoxy)-phenylamino]-methylene}-1,3-dihydro-indol-2-one]",150
13,"Cc1cccc2c1C(=CNc1ccc(OCC3CCCN(C)C3)cc1)C(=O)N2 (stereo not drawn) [Example 278, 4-Methyl-3-{[4-(1-methyl-piperidin-3-ylmethoxy)-phenylamino]-methylene}-1,3-dihydro-indol-2-one]",80
14,"O=C1Nc2ccc(F)cc2C1=CNc1ccc(NCCCN2CCOCC2)cc1 [Example 300, 5-Fluoro-3-{[4-(3-morpholin-4-yl-propylamino)-phenylamino]-methylene}-1,3-dihydro-indol-2-one]",420
15,"O=C1Nc2ccc(F)cc2C1=CNc1ccc(CN2CCOCC2)cc1 [Example 294, 5-Fluoro-3-[(4-morpholin-4-ylmethyl-phenylamino)-methylene]-1,3-dihydro-indol-2-one]",380
16,"CN1CCCC(COc2ccc(NC=C3C(=O)Nc4ccc(F)cc43)cc2)C1 (stereo not drawn) [Example 282, 5-Fluoro-3-{[4-(1-methyl-piperidin-3-ylmethoxy)-phenylamino]-methylene}-1,3-dihydro-indol-2-one]",330
17,"CCN(CC)CCOc1ccc(NC=C2C(=O)Nc3cccc(C)c32)cc1 [Example 264, 3-{[4-(2-Diethylamino-ethoxy)-phenylamino]-methylene}-4-methyl-1,3-dihydro-indol-2-one]",70
18,"Cc1cccc2c1C(=CNc1ccc(NCCCN3CCOCC3)cc1)C(=O)N2 [Example 296, 4-Methyl-3-{[4-(3-morpholin-4-yl-propylamino)-phenylamino]-methylene}-1,3-dihydro-indol-2-one]",140
19,"Cc1cccc2c1C(=CNc1ccc(CN3CCOCC3)cc1)C(=O)N2 [Example 292, 4-Methyl-3-[(4-morpholin-4-ylmethyl-phenylamino)-methylene]-1,3-dihydro-indol-2-one]",90
20,"O=C1Nc2ccccc2C1=CNc1ccc(CN2CCCCC2)cc1 [Example 251, 3-[(4-Piperidin-1-ylmethyl-phenylamino)-methylene]-1,3-dihydro-indol-2-one]",140
21,"O=C1Nc2ccc(F)cc2C1=CNc1ccc(CCN2CCOCC2)cc1 [Example 310, 5-Fluoro-3-{[4-(2-morpholin-4-yl-ethyl)-phenylamino]-methylene}-1,3-dihydro-indol-2-one]",230
22,"O=C1Nc2cc(F)ccc2C1=CNc1ccc(CN2CCOCC2)cc1 [Example 295, 6-Fluoro-3-[(4-morpholin-4-ylmethyl-phenylamino)-methylene]-1,3-dihydro-indol-2-one]",180
23,"O=C1Nc2ccccc2C1=CNc1ccc(CCN2CCOCC2)cc1 [Example 306, 3-{[4-(2-Morpholin-4-yl-ethyl)-phenylamino]-methylene}-1,3-dihydro-indol-2-one]",620
24,"O=C1Nc2ccc(Cl)cc2C1=CNc1ccc(NCCCN2CCOCC2)cc1 [Example 299, 5-Chloro-3-{[4-(3-morpholin-4-yl-propylamino)-phenylamino]-methylene}-1,3-dihydro-indol-2-one]",140
25,"O=C1Nc2ccccc2C1=CNc1ccc(OCCN2CCCC2)cc1 [Example 272, 3-{[4-(2-Pyrrolidin-1-yl-ethoxy)-phenylamino]-methylene}-1,3-dihydro-indol-2-one]",460
26,"O=C1Nc2ccccc2C1=CNc1ccc(NCCCN2CCOCC2)cc1 [Example 297, 3-{[4-(3-Morpholin-4-yl-propylamino)-phenylamino]-methylene}-1,3-dihydro-indol-2-one]",390
27,"O=C1Nc2ccccc2C1=CNc1ccc(CN2CCOCC2)cc1 [Example 290, 3-[(4-Morpholin-4-ylmethyl-phenylamino)-methylene]-1,3-dihydro-indol-2-one]",580
28,"CN1CCCC(COc2ccc(NC=C3C(=O)Nc4ccccc43)cc2)C1 (stereo not drawn) [Example 280, 3-{[4-(1-Methyl-piperidin-3-ylmethoxy)-phenylamino]-methylene}-1,3-dihydro-indol-2-one]",460
29,"O=C1Nc2ccc(F)cc2C1=CNc1ccc(CCN2CCCCC2)cc1 [Example 288, 5-Fluoro-3-{[4-(2-piperidin-1-yl-ethyl)-phenylamino]-methylene}-1,3-dihydro-indol-2-one]",330
30,"Cc1cccc2c1C(=CNc1ccc(CCN3CCOCC3)cc1)C(=O)N2 [Example 308, 4-Methyl-3-{[4-(2-morpholin-4-yl-ethyl)-phenylamino]-methylene}-1,3-dihydro-indol-2-one]",120
